Measured values from PubChem BioAssay AID274 (DTP/NCI, 2004).
Values joined by “and” are separate entries in the source; they are usually repeats but may differ in a detail not shown here. Equal entries are not always repeated. Inconclusive results and toxic doses are left out. Numbered stars: 1 amine (or outer) side, 2 acyl side, 3 side chain; on linkers, the order of the positions; unused ones are H or OH. Bridge positions count the residues as written; N and C are the ends. Square brackets hold non-standard residues; d marks the D form. Peptide text beside a SMILES is read from it. I, II: the chains in the order shown. Actinocin(9to1) = Cc1c2oc3c(C)ccc(C(=O)[*:1])c3nc-2c(C(=O)[*:2])c(N)c1=O; NMeV = CN[CH](C(=O)O)C(C)C; Aze = O=C(O)[CH]1CCN1; Sar = CNCC(=O)O

System: BDF1 mice, Lewis lung carcinoma iv, survival T/C
Assay: NCI In Vivo Anticancer Drug Screen. Data for tumor model Lewis Lung Carcinoma (intravenous) in B6D2F1 (BDF1) mice
Details: endpoint: median survival time, higher = longer survival
Method: The antitumor activity of compounds was measured in mice bearing transplantable tumors. Survival or tumor size were measured and the results are expressed as the measurement made in the treated group (T) divided by the measurement made in the vehicle treated control group (C). The tumor model used in this assay is Lewis Lung Carcinoma (intravenous) in B6D2F1 (BDF1) mice

[1] = dose: 6.25 mg/kg/injection, schedule: Q01DX009 (ip), vehicle: Klucel (hydroxypropylcellulose) (HPC)
[2] = dose: 6.25 mg/kg/injection, schedule: Q01DX009 (ip), vehicle: distilled water + Tween-80
[3] = dose: 12.5 mg/kg/injection, schedule: Q01DX009 (ip), vehicle: distilled water + Tween-80
[4] = dose: 6.25 mg/kg/injection, schedule: Q01DX009 (ip), vehicle: saline with Tween-80
[5] = dose: 12.5 mg/kg/injection, schedule: Q01DX009 (ip), vehicle: saline with Tween-80
[6] = dose: 25.0 mg/kg/injection, schedule: Q01DX009 (ip), vehicle: saline with Tween-80
[7] = dose: 50.0 mg/kg/injection, schedule: Q01DX009 (ip), vehicle: saline with Tween-80
[8] = dose: 100.0 mg/kg/injection, schedule: Q01DX009 (ip), vehicle: saline with Tween-80
[9] = dose: 200.0 mg/kg/injection, schedule: Q01DX009 (ip), vehicle: saline with Tween-80
[10] = dose: 1.5 mg/kg/injection, schedule: Q01DX009 (ip), vehicle: saline
[11] = dose: 3.0 mg/kg/injection, schedule: Q01DX009 (ip), vehicle: saline
[12] = dose: 25.0 mg/kg/injection, schedule: Q01DX009 (ip), vehicle: saline
[13] = dose: 50.0 mg/kg/injection, schedule: Q01DX009 (ip), vehicle: saline
[14] = dose: 100.0 mg/kg/injection, schedule: Q01DX009 (ip), vehicle: saline
[15] = dose: 12.5 mg/kg/injection, schedule: Q01DX009 (ip), vehicle: saline

CC(C)C(=O)OCC1OC(n2cnc3c(=S)nc(N)[nH]c32)C(OC(=O)C(C)C)C1OC(=O)C(C)C (stereo not given)
T/C (dose: 3.12 mg/kg/injection, schedule: Q01DX009 (ip), vehicle: Klucel (hydroxypropylcellulose) (HPC)): 97 % of control | T/C [1]: 90 % of control

NC(Cc1cc([N+](=O)[O-])ccc1CN(CCCl)CCCl)C(=O)O (stereo not given)
T/C (dose: 3.24 mg/kg/injection, schedule: Q04DX003 (ip), vehicle: Klucel (hydroxypropylcellulose) (HPC)): 102 % of control | T/C (dose: 5.4 mg/kg/injection, schedule: Q04DX003 (ip), vehicle: Klucel (hydroxypropylcellulose) (HPC)): 115 % of control | T/C (dose: 15.0 mg/kg/injection, schedule: Q04DX003 (ip), vehicle: Klucel (hydroxypropylcellulose) (HPC)): 102 % of control

Nc1cc(Cl)c2[nH]cnc2n1
T/C [2]: 106 % of control | T/C [3]: 98 % of control | T/C (dose: 25.0 mg/kg/injection, schedule: Q01DX009 (ip), vehicle: distilled water + Tween-80): 109 % of control | T/C (dose: 50.0 mg/kg/injection, schedule: Q01DX009 (ip), vehicle: distilled water + Tween-80): 113 % of control | T/C (dose: 100.0 mg/kg/injection, schedule: Q01DX009 (ip), vehicle: distilled water + Tween-80): 107 % of control

C[Si](C)(C)O/C=C1\CCCCC1=O
T/C [4]: 96 % of control and 98 % of control | T/C [5]: 96 % of control and 98 % of control | T/C [6]: 93 % of control and 102 % of control | T/C [7]: 102 % of control and 107 % of control | T/C [8]: 104 % of control and 116 % of control | T/C [9]: 104 % of control and 113 % of control

O=c1[nH]c(=O)n(C2CC(O)C(CO)O2)cc1I (stereo not given)
T/C [8]: 99 % of control | T/C [9]: 108 % of control

CCCCC(=O)OCC(=O)[C@]1(O)Cc2c(O)c3c(c(O)c2[C@@H](OC2CC(NC(=O)C(F)(F)F)C(O)C(C)O2)C1)C(=O)c1c(OC)cccc1C3=O (stereo not given in full)
T/C (dose: 4.0 mg/kg/injection, schedule: Q01DX009 (ip), vehicle: distilled water + Tween-80): 100 % of control | T/C (dose: 8.0 mg/kg/injection, schedule: Q01DX009 (ip), vehicle: distilled water + Tween-80): 102 % of control | T/C (dose: 16.0 mg/kg/injection, schedule: Q01DX009 (ip), vehicle: distilled water + Tween-80): 121 % of control

CN(C)c1ccc2c(N(C)C)cc(N(C)C)nc2c1
T/C (dose: 1.56 mg/kg/injection, schedule: Q01DX009 (ip), vehicle: Klucel (hydroxypropylcellulose) (HPC)): 98 % of control | T/C (dose: 3.13 mg/kg/injection, schedule: Q01DX009 (ip), vehicle: Klucel (hydroxypropylcellulose) (HPC)): 95 % of control | T/C [1]: 102 % of control | T/C (dose: 12.5 mg/kg/injection, schedule: Q01DX009 (ip), vehicle: Klucel (hydroxypropylcellulose) (HPC)): 99 % of control | T/C (dose: 25.0 mg/kg/injection, schedule: Q01DX009 (ip), vehicle: Klucel (hydroxypropylcellulose) (HPC)): 111 % of control

C=C1C(=O)OCC2C(C(=O)O)=CC3C(C)C(C)=CC123 (stereo not given)
T/C (dose: 2.5 mg/kg/injection, schedule: Q01DX009 (ip), vehicle: Klucel (hydroxypropylcellulose) (HPC)): 87 % of control | T/C (dose: 5.0 mg/kg/injection, schedule: Q01DX009 (ip), vehicle: Klucel (hydroxypropylcellulose) (HPC)): 92 % of control | T/C (dose: 10.0 mg/kg/injection, schedule: Q01DX009 (ip), vehicle: Klucel (hydroxypropylcellulose) (HPC)): 95 % of control | T/C (dose: 40.0 mg/kg/injection, schedule: Q01DX009 (ip), vehicle: Klucel (hydroxypropylcellulose) (HPC)): 91 % of control | T/C (dose: 80.0 mg/kg/injection, schedule: Q01DX009 (ip), vehicle: Klucel (hydroxypropylcellulose) (HPC)): 92 % of control

O=C(O)C1CC1.[Ag]
T/C (dose: 0.78 mg/kg/injection, schedule: Q01DX009 (ip), vehicle: distilled water + Tween-80): 96 % of control | T/C (dose: 1.56 mg/kg/injection, schedule: Q01DX009 (ip), vehicle: distilled water + Tween-80): 110 % of control | T/C (dose: 3.12 mg/kg/injection, schedule: Q01DX009 (ip), vehicle: distilled water + Tween-80): 96 % of control | T/C [2]: 100 % of control | T/C [3]: 107 % of control

COP12(OCCO1)SC(C(F)(F)F)=C(C(F)(F)F)S2
T/C [4]: 106 % of control | T/C [5]: 105 % of control | T/C [6]: 98 % of control | T/C [7]: 95 % of control

[Cl][Pt+2][Cl].[NH-]CC1(C[NH-])CCCCC1
T/C [10]: 96 % of control | T/C [11]: 96 % of control | T/C (dose: 6.0 mg/kg/injection, schedule: Q01DX009 (ip), vehicle: saline): 102 % of control

Cc1c2oc3c(C)ccc(C(=O)NC4C(=O)NC(C(C)C)C(=O)N5CCC5C(=O)N(C)CC(=O)N(C)C(C(C)C)C(=O)OC4C)c3nc-2c(C(=O)NC2C(=O)NC(C(C)C)C(=O)N3CCC3C(=O)N(C)CC(=O)N(C)C(C(C)C)C(=O)OC2C)c(N)c1=O (stereo not given) (I: TV[Aze][Sar][NMeV] / II: TV[Aze][Sar][NMeV]; ester I:1-I:C, II:1-II:C; linker I:N-II:N via Actinocin(9to1); configuration not given here)
T/C (dose: 194.0 micrograms/kg/injection, schedule: Q04DX003 (ip), vehicle: saline + alcohol): 87 % of control | T/C (dose: 270.0 micrograms/kg/injection, schedule: Q04DX003 (ip), vehicle: saline + alcohol): 94 % of control | T/C (dose: 324.0 micrograms/kg/injection, schedule: Q04DX003 (ip), vehicle: saline + alcohol): 95 % of control | T/C (dose: 450.0 micrograms/kg/injection, schedule: Q04DX003 (ip), vehicle: saline + alcohol): 95 % of control | T/C (dose: 540.0 micrograms/kg/injection, schedule: Q04DX003 (ip), vehicle: saline + alcohol): 109 % of control | T/C (dose: 648.0 micrograms/kg/injection, schedule: Q01DX001 (ip), vehicle: saline + alcohol): 97 % of control | T/C (dose: 750.0 micrograms/kg/injection, schedule: Q04DX003 (ip), vehicle: saline + alcohol): 108 % of control | T/C (dose: 1080.0 micrograms/kg/injection, schedule: Q01DX001 (ip), vehicle: saline + alcohol): 98 % of control

Nc1nc2c(c(=O)[nH]1)NC(CCNc1ccc(C(=O)NC(CCC(=O)O)C(=O)O)cc1)CN2 (stereo not given)
T/C [12]: 111 % of control | T/C [13]: 103 % of control | T/C [14]: 117 % of control

O=NN(CCCl)C(=O)NC1CCC(=O)NC1=O (stereo not given)
T/C (dose: 0.5 mg/kg/injection, schedule: Q01DX009 (ip), vehicle: saline with Tween-80): 115 % of control | T/C (dose: 1.0 mg/kg/injection, schedule: Q01DX009 (ip), vehicle: saline with Tween-80): 103 % of control | T/C (dose: 2.0 mg/kg/injection, schedule: Q01DX009 (ip), vehicle: saline with Tween-80): 185 % of control | T/C (dose: 4.0 mg/kg/injection, schedule: Q01DX009 (ip), vehicle: saline with Tween-80): 247 % of control | T/C (dose: 8.0 mg/kg/injection, schedule: Q01DX009 (ip), vehicle: saline with Tween-80): 104 % of control

c1ccc(CN2CCOC2)cc1
T/C [15]: 96 % of control | T/C [12]: 107 % of control | T/C [13]: 116 % of control | T/C [14]: 99 % of control

O=C1C2(Cl)C3(Cl)C4(Cl)C(Cl)(Cl)C5(Cl)[C@]3(Cl)C1(Cl)[C@]5(Cl)C24Cl (stereo not given in full)
T/C (dose: 1.56 mg/kg/injection, schedule: Q01DX009 (ip), vehicle: saline with Tween-80): 301 % of control | T/C (dose: 3.12 mg/kg/injection, schedule: Q01DX009 (ip), vehicle: saline with Tween-80): 110 % of control | T/C [4]: 95 % of control | T/C [5]: 122 % of control

c1ccc(CCN2CCC(CCc3c[nH]c4ccccc34)CC2)cc1
T/C [15]: 100 % of control | T/C [12]: 104 % of control | T/C [13]: 116 % of control

Nc1n[nH]c(N)n1
T/C [14]: 90 % of control | T/C (dose: 200.0 mg/kg/injection, schedule: Q01DX009 (ip), vehicle: saline): 103 % of control | T/C (dose: 400.0 mg/kg/injection, schedule: Q01DX009 (ip), vehicle: saline): 96 % of control | T/C (dose: 800.0 mg/kg/injection, schedule: Q01DX009 (ip), vehicle: saline): 119 % of control

N/C(=N\O)c1cn(C2OC(CO)C(O)C2O)c2ncnc(N)c12 (stereo not given)
T/C (dose: 1.0 mg/kg/injection, schedule: Q01DX009 (ip), vehicle: saline): 91 % of control | T/C (dose: 2.0 mg/kg/injection, schedule: Q01DX009 (ip), vehicle: saline): 88 % of control | T/C (dose: 4.0 mg/kg/injection, schedule: Q01DX009 (ip), vehicle: saline): 98 % of control

O=C(NCCCN1CC1)C(=O)NCCCN1CC1
T/C (dose: 0.75 mg/kg/injection, schedule: Q01DX009 (ip), vehicle: saline): 110 % of control | T/C [10]: 114 % of control | T/C [11]: 120 % of control
